PubChem BioAssay AID651978 (The Scripps Research Institute Molecular Screening Center, 2013)
Activity calls are given as the source filed them. No rule for the calls is given here.

Legend:
Test in all cases: PubChem AID 651978
PNPLA6 = settings: BW5147 mouse T-cell proteome, ABPP-SILAC LC-MS ratio, at 1 µM, active compounds read low
[1] = target: Platelet-activating factor acetylhydrolase 2, cytoplasmic (Mus musculus) (UniProt Q8VDG7); settings: BW5147 mouse T-cell proteome, ABPP-SILAC LC-MS ratio; PAFAH2; at 1 µM; active compounds read low
AADACL1 = settings: BW5147 mouse T-cell proteome, ABPP-SILAC LC-MS ratio, at 1 µM, active compounds read low
ACOT2 = settings: BW5147 mouse T-cell proteome, ABPP-SILAC LC-MS ratio, at 1 µM, active compounds read low
DPP9 = settings: BW5147 mouse T-cell proteome, ABPP-SILAC LC-MS ratio, at 1 µM, active compounds read low
PAFAH1B3 = settings: BW5147 mouse T-cell proteome, ABPP-SILAC LC-MS ratio, at 1 µM, active compounds read low
ESD = settings: BW5147 mouse T-cell proteome, ABPP-SILAC LC-MS ratio, at 1 µM, active compounds read low
FASN = settings: BW5147 mouse T-cell proteome, ABPP-SILAC LC-MS ratio, at 1 µM, active compounds read low
APEH = settings: BW5147 mouse T-cell proteome, ABPP-SILAC LC-MS ratio, at 1 µM, active compounds read low
ABHD12 = settings: BW5147 mouse T-cell proteome, ABPP-SILAC LC-MS ratio, at 1 µM, active compounds read low
DPP8 = settings: BW5147 mouse T-cell proteome, ABPP-SILAC LC-MS ratio, at 1 µM, active compounds read low
PAFAH1B2 = settings: BW5147 mouse T-cell proteome, ABPP-SILAC LC-MS ratio, at 1 µM, active compounds read low
SIAE = settings: BW5147 mouse T-cell proteome, ABPP-SILAC LC-MS ratio, at 1 µM, active compounds read low
PRCP = settings: BW5147 mouse T-cell proteome, ABPP-SILAC LC-MS ratio, at 1 µM, active compounds read low
CTSA = settings: BW5147 mouse T-cell proteome, ABPP-SILAC LC-MS ratio, at 1 µM, active compounds read low
[2] = target: Palmitoyl-protein thioesterase ABHD10, mitochondrial (Mus musculus) (UniProt Q6PE15); settings: BW5147 mouse T-cell proteome, ABPP-SILAC LC-MS ratio, at 1 µM, active compounds read low
[3] = target: Acyl-protein thioesterase 1 (Mus musculus) (UniProt P97823); settings: BW5147 mouse T-cell proteome, ABPP-SILAC LC-MS ratio; LYPLA1; at 1 µM; active compounds read low
DPP4 = settings: BW5147 mouse T-cell proteome, ABPP-SILAC LC-MS ratio, at 1 µM, active compounds read low
LIPA = settings: BW5147 mouse T-cell proteome, ABPP-SILAC LC-MS ratio, at 1 µM, active compounds read low
[4] = target: Prolyl endopeptidase (Mus musculus) (UniProt Q9QUR6); settings: BW5147 mouse T-cell proteome, ABPP-SILAC LC-MS ratio; PREP; at 1 µM; active compounds read low
FAAH = settings: BW5147 mouse T-cell proteome, ABPP-SILAC LC-MS ratio, at 1 µM, active compounds read low
LYPLA2 = settings: BW5147 mouse T-cell proteome, ABPP-SILAC LC-MS ratio, at 1 µM, active compounds read low
DPP7 = settings: BW5147 mouse T-cell proteome, ABPP-SILAC LC-MS ratio, at 1 µM, active compounds read low
[5] = target: sn-1-specific diacylglycerol lipase ABHD11 (Mus musculus) (UniProt Q8K4F5); settings: BW5147 mouse T-cell proteome, ABPP-SILAC LC-MS ratio, at 1 µM, active compounds read low
PREPL = settings: BW5147 mouse T-cell proteome, ABPP-SILAC LC-MS ratio, at 1 µM, active compounds read low
LACTB = settings: BW5147 mouse T-cell proteome, ABPP-SILAC LC-MS ratio, at 1 µM, active compounds read low
ACOT1 = settings: BW5147 mouse T-cell proteome, ABPP-SILAC LC-MS ratio, at 1 µM, active compounds read low
PNPLA7 = settings: BW5147 mouse T-cell proteome, ABPP-SILAC LC-MS ratio, at 1 µM, active compounds read low
[6] = target: Monoacylglycerol lipase ABHD6 (Mus musculus) (UniProt Q8R2Y0); settings: BW5147 mouse T-cell proteome, ABPP-SILAC LC-MS ratio, at 1 µM, active compounds read low
Sequence of Monoacylglycerol lipase ABHD6 (Mus musculus) (Q8R2Y0 whole entry, looked up): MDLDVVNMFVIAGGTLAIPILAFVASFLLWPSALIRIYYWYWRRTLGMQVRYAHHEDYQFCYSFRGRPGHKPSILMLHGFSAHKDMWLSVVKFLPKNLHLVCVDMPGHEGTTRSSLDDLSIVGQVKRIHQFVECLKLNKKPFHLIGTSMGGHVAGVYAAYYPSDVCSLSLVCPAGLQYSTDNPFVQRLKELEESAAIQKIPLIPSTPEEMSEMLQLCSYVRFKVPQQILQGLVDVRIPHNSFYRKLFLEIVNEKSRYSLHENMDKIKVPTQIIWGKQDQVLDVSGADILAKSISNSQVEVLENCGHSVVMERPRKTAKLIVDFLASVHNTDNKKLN

Sequence of Palmitoyl-protein thioesterase ABHD10, mitochondrial (Mus musculus) (Q6PE15 whole entry, looked up): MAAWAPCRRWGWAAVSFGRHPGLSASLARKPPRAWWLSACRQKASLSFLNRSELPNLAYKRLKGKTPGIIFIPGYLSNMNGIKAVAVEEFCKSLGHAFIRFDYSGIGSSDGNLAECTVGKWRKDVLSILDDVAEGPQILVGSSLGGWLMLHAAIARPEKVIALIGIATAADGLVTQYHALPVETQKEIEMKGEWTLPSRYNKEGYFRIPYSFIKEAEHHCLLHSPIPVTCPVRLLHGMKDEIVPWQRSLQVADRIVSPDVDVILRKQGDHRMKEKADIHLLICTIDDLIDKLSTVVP
Sequence of sn-1-specific diacylglycerol lipase ABHD11 (Mus musculus) (Q8K4F5 whole entry, looked up): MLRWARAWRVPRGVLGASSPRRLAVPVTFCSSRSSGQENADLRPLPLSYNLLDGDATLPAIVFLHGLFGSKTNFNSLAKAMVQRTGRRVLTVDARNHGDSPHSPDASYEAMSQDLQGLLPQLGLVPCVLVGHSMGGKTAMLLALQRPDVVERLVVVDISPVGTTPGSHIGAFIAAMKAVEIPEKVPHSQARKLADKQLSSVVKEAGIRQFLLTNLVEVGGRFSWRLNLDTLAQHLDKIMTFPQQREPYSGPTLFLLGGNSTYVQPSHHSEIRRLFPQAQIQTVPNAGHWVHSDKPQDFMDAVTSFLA
Sequence of Platelet-activating factor acetylhydrolase 2, cytoplasmic (Mus musculus) (Q8VDG7 whole entry, looked up): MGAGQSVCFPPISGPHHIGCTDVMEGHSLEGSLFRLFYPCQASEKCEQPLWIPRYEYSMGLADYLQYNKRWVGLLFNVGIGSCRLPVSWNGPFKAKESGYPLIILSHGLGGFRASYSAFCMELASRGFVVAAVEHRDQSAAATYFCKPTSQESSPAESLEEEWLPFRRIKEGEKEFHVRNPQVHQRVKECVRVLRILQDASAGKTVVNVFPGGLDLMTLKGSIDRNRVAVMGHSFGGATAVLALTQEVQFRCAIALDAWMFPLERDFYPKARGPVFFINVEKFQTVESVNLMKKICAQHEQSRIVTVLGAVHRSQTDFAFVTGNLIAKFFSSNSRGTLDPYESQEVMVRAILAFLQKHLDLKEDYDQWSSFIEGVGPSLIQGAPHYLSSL
Sequence of Prolyl endopeptidase (Mus musculus) (Q9QUR6 whole entry, looked up): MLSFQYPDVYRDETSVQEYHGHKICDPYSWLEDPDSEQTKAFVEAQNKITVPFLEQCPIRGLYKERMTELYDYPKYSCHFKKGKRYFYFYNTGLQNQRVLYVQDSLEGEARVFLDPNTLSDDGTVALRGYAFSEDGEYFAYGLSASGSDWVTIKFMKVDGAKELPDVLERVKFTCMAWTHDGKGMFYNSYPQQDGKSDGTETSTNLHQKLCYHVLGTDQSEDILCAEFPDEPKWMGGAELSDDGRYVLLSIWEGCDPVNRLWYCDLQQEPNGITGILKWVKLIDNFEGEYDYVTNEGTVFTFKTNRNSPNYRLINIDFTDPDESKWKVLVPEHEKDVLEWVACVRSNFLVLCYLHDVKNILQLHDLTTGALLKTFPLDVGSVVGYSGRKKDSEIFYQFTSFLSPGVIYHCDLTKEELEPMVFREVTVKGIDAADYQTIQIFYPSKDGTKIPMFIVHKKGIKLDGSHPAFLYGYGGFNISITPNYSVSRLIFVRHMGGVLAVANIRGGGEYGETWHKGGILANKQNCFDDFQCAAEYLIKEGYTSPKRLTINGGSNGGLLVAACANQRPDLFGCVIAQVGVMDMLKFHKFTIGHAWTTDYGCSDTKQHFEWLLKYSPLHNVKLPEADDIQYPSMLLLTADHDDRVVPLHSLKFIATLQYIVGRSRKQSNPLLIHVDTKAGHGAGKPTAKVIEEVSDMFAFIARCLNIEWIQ
Sequence of Acyl-protein thioesterase 1 (Mus musculus) (P97823 whole entry, looked up): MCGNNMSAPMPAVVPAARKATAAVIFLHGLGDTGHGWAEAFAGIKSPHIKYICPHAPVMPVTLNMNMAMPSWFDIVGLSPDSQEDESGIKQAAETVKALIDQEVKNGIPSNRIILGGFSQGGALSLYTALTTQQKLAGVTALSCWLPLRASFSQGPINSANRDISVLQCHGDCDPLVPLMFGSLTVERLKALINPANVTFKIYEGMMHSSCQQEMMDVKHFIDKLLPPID

- light/heavy ratio (remaining activity) (PNPLA6): 1.2 (inactive)
- light/heavy ratio (remaining activity) [1]: 1.3 (inactive)
- light/heavy ratio (remaining activity) (AADACL1): 1.05 (inactive)
- light/heavy ratio (remaining activity) (ACOT2): 1.08 (inactive)
- light/heavy ratio (remaining activity) (DPP9): 1.06 (inactive)
- light/heavy ratio (remaining activity) (PAFAH1B3): 1.04 (inactive)
- light/heavy ratio (remaining activity) (ESD): 1.05 (inactive)
- light/heavy ratio (remaining activity) (FASN): 1.1 (inactive)
- light/heavy ratio (remaining activity) (APEH): 1.06 (inactive)
- light/heavy ratio (remaining activity) (ABHD12): 1.29 (inactive)
- light/heavy ratio (remaining activity) (DPP8): 1.08 (inactive)
- light/heavy ratio (remaining activity) (PAFAH1B2): 1.04 (inactive)
- light/heavy ratio (remaining activity) (SIAE): 0.98 (inactive)
- light/heavy ratio (remaining activity) (PRCP): 0.97 (inactive)
- light/heavy ratio (remaining activity) (CTSA): 1.11 (inactive)
- light/heavy ratio (remaining activity) [2]: 0.76 (inactive)
- light/heavy ratio (remaining activity) [3]: 0.03
- light/heavy ratio (remaining activity) (DPP4): 1.24 (inactive)
- light/heavy ratio (remaining activity) (LIPA): 1.12 (inactive)
- light/heavy ratio (remaining activity) [4]: 1.08 (inactive)
- light/heavy ratio (remaining activity) (FAAH): 1.19 (inactive)
- light/heavy ratio (remaining activity) (LYPLA2): 0.84 (inactive)
- light/heavy ratio (remaining activity) (DPP7): 0.87 (inactive)
- light/heavy ratio (remaining activity) [5]: 0.74 (inactive)
- light/heavy ratio (remaining activity) (PREPL): 0.95 (inactive)
- light/heavy ratio (remaining activity) (LACTB): 1.23 (inactive)
- light/heavy ratio (remaining activity) (ACOT1): 1.22 (inactive)
- light/heavy ratio (remaining activity) (PNPLA7): 1.29 (inactive)
- light/heavy ratio (remaining activity) [6]: 1.18 (inactive)
Compound: O=C(CN1CCN(C(=O)c2ccco2)CC1)Nc1cc(C(F)(F)F)ccc1Cl
